Experimental data taken from patent publication US20160074390A1, “HUMAN DOSING OF PHOSPHATASE INHIBITOR” (Lixte Biotechnology, Inc., priority 2014, published 2016).
Several values for one entry are separate records, joined by “and”; a condition that tells them apart may be missing. Identical values can stand only once. Like-named read-outs stand apart in the source and are kept apart here.

Assays:
Akt = details: Lu et al. 2009; cited from earlier work
[1] = test system: patients with advanced solid tumors; details: in vivo
Experimental: This is a Phase I, open label, multicenter, two-part, dose-escalation study of LB-100 administered intravenously in patients with advanced solid tumors. Two dose regimens are explored. In the first regimen (Part 1), single agent LB-100 is given daily on Days 1 through 3 of every 21 day cycle. In the second regimen (Part 2), docetaxel-naïve patients are treated with LB-100 given daily on Days 1 through 3 in combination with a fixed dose of docetaxel (either 60 mg/m^2 or 75 mg/m^2) given on Day 2 of every 21 day cycle. Once the MTD of single agent LB-100 is reached, 3 additional patients are enrolled in an MTD confirmation cohort. Part 2 enrolls patients once the MTD of single agent LB-100 is determined in Part 1.
The starting dose of L8-100 for Part 1 is 0.25 mg/m^2. The starting dose of LB-100 for Part 2 is 2 dose levels below the MTD determined in Part 1, administered in combination with docetaxel 60 mg/m^2. Once the MTD of LB-100+docetaxel 60 mg/m^2 is determined, the dose of LB-100 is reduced 2 dose levels and administered in combination with docetaxel 75 mg/m^2. The dose of LB-100 is then be escalated to the full LB-100 dose (of the LB-100+docetaxel 60 mg/m^2 MTD) and administered in combination with docetaxel 75 mg/m^2. Once the MTD of the combination of LB-100+docetaxel (either 60 mg/m^2 or 75 mg/m^2) is reached, 3 additional patients are enrolled in an MTD/RD confirmation cohort.
LB-100 is administered in escalating dose levels. Enrollment in each dose cohort proceeds in the standard “3+3” schema. In each cohort, the first patient enrolled completes Cycle 1 treatment and safety monitoring prior to the enrollment of the second and third patients; the second and third patients may be enrolled simultaneously. DLTs are evaluated and recorded during the first 2 cycles of treatment.
Initially, the decision to escalate to the next dose level is be based on the observation of DLT during Cycle 1. If no DLT is observed, escalation proceeds to the next cohort. If a DLT is observed in Cycle 2 in the study, the escalation strategy is evaluated moving forward. Escalation continues until the maximum administered dose (MAD), maximum tolerated dose (MTD) and recommended dose (RD) are determined.
On Days 1, 2 and 3 of each cycle, LB-100 was infused over 15 minutes.
LB-100 was administered daily on Days 1 through 3 of every 21 day cycle to patients at the following dose levels:
Enrollment in each dose cohort will proceed in the standard “3+3” schema where 3 patients are initially enrolled per cohort; Scheme 2. In each cohort, the first patient enrolled will complete Cycle 1 treatment and safety monitoring prior to the enrollment of the second and third patients; the second and third patients may be enrolled simultaneously. Dose limiting toxicities (DLTs) will be evaluated and recorded during the first 2 cycles of treatment. Initially, the decision to escalate to the next dose level will be based on the observation of DLT during Cycle 1. If no DLT is observed, escalation will proceed to the next cohort. Note: if a DLT is observed in Cycle 2 in the study, the escalation strategy will be evaluated moving forward. If, however, DLT is observed in 1 of the 3 patients, an additional 3 patients must be enrolled at that dose. In a cohort of 6, if one patient has DLT, then dose escalation may proceed; if 2 or more patients have DLT, then that dose will be considered the maximum administered dose (MAD) and dose escalation will cease. The MTD is defined as one dose level below the MAD. Once the MTD of single agent LB-100 is reached, 3 additional patients will be enrolled in an MTD confirmation cohort. At least 6 patients must be treated at the MTD to determine the safety of that dose as a basis for the starting dose of LB-100 in Part 2 of this study.
The NCI Common Terminology Criteria for Adverse Events (CTCAE) Version 4.0 will be used to grade toxicity.

[2] = test system: human glioblastoma cell line, U373; details: simultaneous exposure, US 2010/0029683 A1; cited from earlier work
TNBC cell lines = assay: Cytotoxicity against TNBC cells; format: cell-based; details: single agent; present-tense example
Experimental: LB-100 inhibits PP2A activity and is cytotoxic to TNBC cells. LB-100 synergizes with chemotherapeutic drugs to enhance cytotoxicity against TNBC cells. LB-100 also enhances the effects of chemotherapy in TNBC xenografts. LB-100 chemosensitizes doxorubicin and cisplatin to TNBC cells and/or has a synergistic cytotoxic effect with doxorubicin and/or cisplatin against TNBC cells.
Both doxorubicin (0.2 μg/ml) and cisplatin (2 μg/ml) in combination with LB-100 are cytotoxic to TNBC cell lines. The addition of LB-100 sensitizes TNBC cells to doxorubicin and cisplatin. TNBC cell lines include HCC1599, HCC1937, HCC1599, MDA-MB-468, HCC38, HCC70, HCC1806, HCC1187, DU4475, BT-549, Hs-578T, MDA-MB-231, MDA-MB-436, MDA-MB-157, MDA-MB-453, BT-20, and HCC1395.

[3] = test system: male and female beagle dogs; assay: GLP repeat dose toxicity study, IV daily x5 days
Experimental: In the GLP repeat dose dog study, LB-100 was administered by intravenous injection (slow bolus push) at dose levels of 0.15, 0.30, and 0.75 mg/kg daily for 5 consecutive days.
Multilead (I, II, III, aVR, aVL, aVF, and V2) ECGs were recorded for all animals prior to randomization (Day −8) and for all surviving animals on Day 4 (recorded approximately 2 to 4 hours following dose administration) and Day 27.
Blood pressure (systolic, diastolic, and mean arterial pressure) data were recorded for all animals once during the pretest period (Day −8) and for all surviving animals on study Day 4 (recorded approximately 2 to 4 hours following dose administration) and Day 27.

[4] = test system: HeLa cells, OS-17, MKN28, MKN45, MGC803, and SGC7901 cells; assay: Growth of Mad2-overexpressing cell lines in vitro; format: cell-based, human; details: all cell lines; present-tense example
Experimental: Compound LB-100 inhibits PP2A phosphatase in cancer cells which in turn induces Mad-2 phosphorylation while suppressing Mad-2 protein levels. In order to characterize the effects of LB-100 on cancers overexpressing Mad2, tumor cell lines carrying Mad2-overexpressing mutations are tested. LB-100 inhibits the growth of the cancer cells in in vitro assays. […] Exposure to LB-100 reduces the expression of Mad-2 in the cells.
Mad2-overexpressing HeLa cells (HeLa Mad-2 O/E), osteosarcoma human cells (OS-17) and gastric cell lines (MKN28, MKN45, MGC803, and SGC7901) express high levels of Mad2 (Yu, L. et al. 2010). LB-100 inhibits the growth of the HeLa cells, OS-17, MKN28, MKN45, MGC803, and SGC7901 cells in vitro. […] Exposure to LB-100 reduces the expression of Mad-2 in all cell lines.

[5] = Non-GLP dose ranging toxicity study, daily IV infusion x4 days (NCI); details: male, Fischer, rat, in vivo, iv
Experimental: (§1) In a non-GLP dose ranging study in male Fischer rats conducted by the NCI, LB-100 was administered by daily intravenous (IV) infusion at 0.5, 0.75 and 1.5 mg/kg/day for 4 consecutive days.

male Fischer rats = assay: as above
Experimental: as §1

in vivo = details: beagle, dog, 0.15 mg/kg
[6] = Solubility and stability of LB-100 solution; format: physicochemical; details: for stability of formulation: in monosodium glutamate, pH 10.5
From the text: LB-100 is a water soluble enantiomeric zwitterion provided as a sterile solution for intravenous administration. […] Phosphate buffered saline (PBS) was used as the vehicle for LB-100 administration in preclinical efficacy studies and sodium bicarbonate 4.2% for injection was used as the vehicle for GLP toxicity studies.

[7] = test system: male and female Sprague Dawley rats; assay: GLP repeat-dose toxicity study, daily IV slow bolus x5 days
advanced solid tumors = assay: Phase I Part 1 single agent LB-100: tumor response (RECIST 1.1); format: in vivo, human
From the text: Two dose regimens are explored.
Although response is not the primary endpoint of this study, patients with measurable disease will be assessed at baseline and during the study by standard criteria. Patients should be reevaluated after receiving 2 cycles of study therapy and then after every 2 cycles thereafter. In the event objective response (PR or CR) is noted, changes in tumor measurements must be confirmed by repeat assessments that should be performed at least 4 weeks after the criteria for response are first met.
Response and progression will be evaluated in this study using the international criteria (version 1.1) proposed by the Response Evaluation Criteria in Solid Tumors (RECIST) Committee [Eur J Cancer. 45 (2009) 228-247]. Changes in only the largest diameter (unidimensional measurement) of the tumor lesions are used in the RECIST 1.1 guidelines. Note: Lesions are either measurable or non-measurable using the criteria provided below.
• Complete Response (CR): Disappearance of all target lesions.
The patient's best overall response assignment will depend on findings of both target and non-target disease and will also take into consideration the appearance of new lesions. It is assumed that at each protocol-specified time point, a response assessment occurs. Table provides a summary of the overall response status calculation at each time point for patients who have measurable disease at baseline.
In the case of SD, follow-up measurements must have met the SD criteria at least once after study entry at a minimum interval at 5 weeks.

beagle dogs = assay: Non-GLP dose ranging toxicity study, IV every 4 days x4 doses; format: in vivo, dog
[8] = Toxicokinetics in GLP repeat-dose rat study; details: Sprague Dawley, in vivo, iv, 0.75 mg/kg/day, study Day 4
From the text: These changes were reversible. […] Inflammation was often accompanied by mesothelial hypertrophy.

In the case of CCN1CCCC1CNC(=O)c1cc(S(=O)(=O)CC)c(NC)cc1OC (stereo not drawn) [LB-102], the “phosphorylation of Akt” value (Akt) is listed as “increased”.

For CN1CCN(C(=O)C2C(C(=O)O)[C@H]3CC[C@@H]2O3)CC1 (mixture of isomers) [LB-100, 3-(4methylpiperazine-carbonyl)-7-oxalobicyclo[2.2.1]heptane-2-carboxylic acid], the adverse events ([1]; human) was “No adverse events attributable to LB-100”, the dyspnea ([1]; human) was “grade 1” and the tolerability ([1]; human) was “without any symptoms attributable to LB-100”. For the same compound, the “vomiting, related to LB-100” value ([1]; human) was “grade 3”, the “adverse events attributed to a bleeding rectal mass” value ([1]; human, 1 cycle) was “grade 3 anemia and grade 2 weakness” and the “neuropathy, possibly related to LB-100” value ([1]; human, 4 cycles) was “Grade 1”. For the same compound, the adverse events [1] was “No new adverse events”, the dose limiting toxicity [1] was “no dose limiting toxicity” and the “relation of pulmonary embolism to treatment” value [1] was “not related”. The “cytotoxic effect of cisplatin” value [2] was “enhanced”, the “cytotoxic effect of doxorubicin” value [2] was “enhanced” and the “cytotoxic effect of taxol” value [2] was “enhanced”. The “cytotoxic effect of temozolomide” value [2] was “enhanced”, the “cytotoxicity to TNBC cells” value (TNBC cell lines) was “cytotoxic” and the tolerability ([3]; 0.15 mg/kg/day) was “well tolerated”. The “test article-related lethality, animals” value ([3]; 0.75 mg/kg/day group, before fourth dose) was 2 of 10, the “Highest Non-Severely Toxic Dose (HNSTD)” value ([3]; daily IV x5 days) was 0.15 mg/kg and the ECGs ([3]; dog, in vivo) was “within normal limits”. For the same compound, the blood pressure ([3]; dog, in vivo) was “unaffected”, the cytotoxicity [4] was “Dose-dependent cytotoxicity” and the MTD at 4 days [5] was 0.75 mg/kg/day. For the same compound, the nephrosis severity (male Fischer rats; 0.75 mg/kg/day) was “mild”, the “no-observed-adverse-effect-level (NOAEL)” value (male Fischer rats; 0.5, 0.75 and 1.5 mg/kg/day x4 days) was “not established” and the heart toxicity (male Fischer rats; 0.75 and 1.5 mg/kg/day groups) was “epicardial hyperplasia with inflammation primarily on the epicardium of the atria”. The MTD (male Fischer rats; IV daily for 4 days, converted dose) was “about 4.5 mg/m^2”, the unscheduled deaths (male Fischer rats; any treatment group) was “no unscheduled deaths” and the dose-limiting toxicities (male Fischer rats; rat, in vivo, iv) was “Kidney, heart, femoral bone, liver and urinary bladder toxicity”. The AUC(0-t) (in vivo; female) was 335 ng·h/mL, the AUC(0-t) (in vivo; male) was 267 ng·h/mL and the water solubility ([6]; enantiomeric zwitterion) was “water soluble”. For the same compound, the stability of formulation ([6]; refrigerated temperatures) was “at least 8 hours”, the stability of formulation ([6]; −20° C.) was “stable for months” and the “racemization of separated enantiomers” value ([6]; in solution) was “racemize rapidly”. The “epicardium and subepicardium of atria” value ([7]; 0.5, 0.75, 1.25 mg/kg/day males, 1.25 mg/kg/day females) was “Minimal to mild subacute inflammation”, the kidney finding ([7]; 0.75 and 1.25 mg/kg/day, males and females) was “adverse, test article-related nephrosis of the kidneys” and the “test article-related effects on urinalysis parameters” value ([7]; Day 5, reversible) was “observed in all treatment groups”. The “severely toxic dose in 10% of the animals (STD 10)” value ([7]; daily IV x5 days) was 0.75 mg/kg/day, the “duration of stable disease” value (advanced solid tumors; Patient 10, pancreatic cancer, 0.83 mg/m^2) was 39 weeks and the “time remained stable since starting LB-100” value (advanced solid tumors; Patient 10, pancreatic cancer, interim (8 cycles)) was 6 months. The “cycles on treatment with stable disease” value (advanced solid tumors; Patient 17, metastatic thymoma, DL5 1.75 mg/m^2) was 7 cycles and 8 cycles, the “cycles of stable disease” value (advanced solid tumors; breast, ovarian, carcinoid and testicular cancer patients) was 4-6 cycles and the “possible test article-related clinical observation” value (beagle dogs; 1.0 mg/kg, one female, study Day 13) was “intermittent tremors”. For the same compound, the survival (beagle dogs; 0.1-1.0 mg/kg) was “no LB-100-related effects on survival”, the “body weight gain and food consumption” value (beagle dogs; 0.5 and 1.0 mg/kg, females) was “lower body weight gains and food consumption” and the “no-observed-effect level (NOEL)” value (beagle dogs; IV every 4 days x4 doses) was 0.25 mg/kg. For the same compound, the signs of toxicity (beagle dogs; dog, in vivo, 1 mg/kg) was “almost no signs of toxicity”, the AUC(0-t) ([8]; female, females) was 691 ng·h/mL and the C0 ([8]; female, females) was 2350 ng/mL. The AUC(0-t) ([8]; male, males) was 596 ng·h/mL and the C0 ([8]; male, males) was 1800 ng/mL.
